Assay results taken from patent EP0889886B1, “NOVEL PHENANTHRIDINES SUBSTITUTED IN THE 6 POSITION” (ALTANA Pharma AG, priority 1996, dated 1997).
Structures can show the parent of a compound that is named as a salt.

test system: PDE IV; test: Inhibition of PDE IV activity (method of Bauer and Schwabe, adapted to microtiter plates); format: biochemical; conditions: Hemmung der PDE IV-Aktivität
Method: Hierbei erfolgt im ersten Schritt die PDE-Reaktion. In einem zweiten Schritt wird das entstandene 5'-Nukleotid durch eine 5'-Nukleotidase des Schlangengiftes von Crotalus Atrox zum ungeladenen Nukleosid gespalten. Im dritten Schritt wird das Nukleosid auf lonenaustauschsäulen vom verbliebenen geladenen Substrat getrennt. Die Säulen werden mit 2 ml 30 mM Ammoniumformiat (pH 6,0) direkt in Minivials eluiert, in die noch 2 ml Szintillatorflüssigkeit zur Zählung gegeben wird.

First: COc1cc2c(cc1OC)[C@H]1CCCC[C@H]1N=C2c1ccc(NS(=O)(=O)c2ccc(C)cc2)cc1 (racemic) [Verbindung 1, (+/-)-cis-8,9-Dimethoxy-6-(4-p-toluolsulfonamidophenyl)-1,2,3,4,4a,10b-hexahydrophenanthridin]
Second: COc1cc2c(cc1OC)C1CCCCC1N=C2c1ccc(NS(=O)(=O)c2ccc(C)cc2)cc1 (racemic) [Verbindung 9, (+/-)-trans-8,9-Dimethoxy-6-(4-p-toluolsulfonamidophenyl)-1,2,3,4,4a,10b-hexahydrophenanthridin-hydrochtorid]
The “-log IC50” value of the first is higher: 7.73 for the first, 6.17 for the second.

First: CCOc1cc2c(cc1OCC)[C@H]1CCCC[C@H]1N=C2c1ccc(NS(=O)(=O)c2ccc(C)cc2)cc1 (racemic) [Verbindung 2, (+/-)-cis-8,9-Diethoxy-6-(4-p-toluolsulfonamidophenyl)-1,2,3,4,4a,10b-hexahydrophenanthridin]
Second: CCOc1cc2c(cc1OC)C(c1ccc(NS(=O)(=O)c3ccc(C)cc3)cc1)=N[C@@H]1CCCC[C@H]21 (racemic) [Verbindung 20, (+/-)-cis-9-Ethoxy-8-methoxy-6-(4-p-toluolsulfonamidophenyl)-1,2,3,4,4a,10b-hexahydrophenanthridin]
The “-log IC50” value of the first is lower: 8.39 for the first, 9.05 for the second.

Going from `COc1cc2c(cc1OC1CCCC1)[C@H]1CCCC[C@H]1N=C2c1ccc(NS(=O)(=O)c2ccc(C)cc2)cc1` (racemic) [Verbindung 3, (+/-)-cis-9-Cyclopentyloxy-8-methoxy-6-(4-p-toluolsulfonamidophenyl)-1,2,3,4,4a,10bhexahydrophenanthridin] to `COc1cc2c(cc1OC1CCCC1)C(c1ccc(NS(=O)(=O)c3ccc(C)cc3)cc1)=N[C@@H]1CCCC[C@H]21` (racemic) [Verbindung 4, (+/-)-cis-8-Cyclopentyloxy-9-methoxy-6-(4-p-toluolsulfonamidophenyl)-1,2,3,4,4a,10bhexahydrophenanthridin], the “-log IC50” value falls from 7.76 to 6.12.

Going from `COc1cc2c(cc1OC)[C@@H]1CCCC[C@@H]1N=C2c1ccc([N+](=O)[O-])cc1` (racemic) [Verbindung 5, (+/-)-cis-8,9-Dimethoxy-6-(4-nitrophenyl)-1,2,3,4,4a,10b-hexahydrophenanthridin] to `CCOc1cc2c(cc1OC)C(c1ccc([N+](=O)[O-])cc1)=N[C@H]1CCCC[C@@H]21` (racemic) [Verbindung 21, (+/-)-cis-9-Ethoxy-8-methoxy-6-(4-nitrophenyl)-1,2,3,4,4a,10b-hexahydrophenanthridin], the “-log IC50” value rises from 7.22 to 8.46.

Going from `COc1cc2c(cc1OC)[C@H]1CCCC[C@H]1N=C2c1c(Cl)cccc1Cl` (racemic) [Verbindung 6, (+/-)-cis-8,9-Dimethoxy-6-(2,6-dichlorphenyl)-1,2,3,4,4a,10b-hexahydrophenanthridin] to `COc1ccc(C2=N[C@H]3CCCC[C@H]3c3cc(OC)c(OC)cc32)cc1OC` (racemic) [Verbindung 7, (+/-)-cis-8,9-Dimethoxy-6-(3,4-dimethoxyphenyl)-1,2,3,4,4a,10b-hexahydrophenanthridin], the “-log IC50” value falls from 6.77 to 6.44.

Compared with `COc1cc2c(cc1OC)[C@H]1CC(C)=C(C)C[C@H]1N=C2c1ccc(NS(=O)(=O)c2ccc(C)cc2)cc1` (racemic) [Verbindung 8, (+/-)-cis-8,9-Dimethoxy-2,3-dimethyl-6-(4-p-toluolsulfonamidophenyl)-1,4,4a,10b-tetrahydrophenanthridin], `COc1cc2c(cc1OC)C1CC=CCC1N=C2c1ccc(NS(=O)(=O)c2ccc(C)cc2)cc1` (racemic) [Verbindung 10, (+/-)-trans-8,9-Dimethoxy-6-(4-p-toluolsulfonamidophenyl)-1,4,4a,10b-tetrahydrophenanthridin-hydrochlorid] is lower in “-log IC50” value: 6.91 for the first, 6.10 for the second.

Going from `COc1cc2c(cc1OC)C1C3CCC(CC3)C1N=C2c1ccc(NS(=O)(=O)c2ccc(C)cc2)cc1` (racemic) [Verbindung 12, (+/-)-trans-8,9-Dimethoxy-1,4-ethano-6-(4-p-toluolsulfonamidophenyl)-1,2,3,4,4a,10bhexahydrophenanthridin] to `COc1cc2c(cc1OC)[C@H]1CCCC[C@H]1N=C2c1ccc(N(C(C)=O)S(=O)(=O)c2ccc(C)cc2)cc1` (racemic) [Verbindung 34, (+/-)-cis-8,9-Dimethoxy-6-[(N-acetyl-4-p-toluolsulfonamido)phenyl]-1,2,3,4,4a,10b-hexahydrophenanthridin], the “-log IC50” value rises from 5.77 to 7.42.

Compared with `CCOc1cc2c(cc1OCC)[C@@H]1CCCC[C@@H]1N=C2c1ccc(OC(C)=O)cc1` (racemic) [Verbindung 13, (+/-)-cis-6-(4-Acetoxyphenyl)-8,9-diethoxy-1,2,3,4,4a,10b-hexahydrophenanthridin], `CCOc1cc2c(cc1OCC)[C@H]1CCCC[C@H]1N=C2c1ccc(F)cc1` (racemic) [Verbindung 16, (+/-)-cis-8,9-Diethoxy-6-(4-fluorphenyl)-1,2,3,4,4a,10b-hexahvdrophenanthridin] is lower in “-log IC50” value: 8.43 for the first, 7.93 for the second.

`CCOc1cc2c(cc1OCC)[C@@H]1CCCC[C@@H]1N=C2c1ccc(Cc2ccccc2)cc1` (racemic) [Verbindung 14, (+/-)-cis-6-(4-Benzylphenyl)-8,9-diethoxy-1,2,3,4,4a,10b-hexahydrophenanthridin] and `CCOc1cc2c(cc1OCC)[C@@H]1CCCC[C@@H]1N=C2c1ccc(-c2ccccc2)cc1` (racemic) [Verbindung 15, (+/-)-cis-6-Biphenyl-8,9-diethoxy-1,2,3,4,4a,10b-hexahydrophenanthridin] are within 0.2 log units of each other in “-log IC50” value: 8.08 for the first, 7.98 for the second.

`CCOc1cc2c(cc1OCC)[C@H]1CCCC[C@H]1N=C2c1ccc(C(F)(F)F)cc1` (racemic) [Verbindung 17, (+/-)-cis-8,9-Diethoxy-7-(4-trifluormethylphenyl)-1,2,3,4,4a,10b-hexahydrophenanthridin] and `CCOc1cc2c(cc1OCC)[C@H]1CCCC[C@H]1N=C2c1ccc(OC(F)(F)F)cc1` (racemic) [Verbindung 19, (+/-)-cis-8,9-Diethoxy-6-(4-trifluormethoxyphenyl)-1,2,3,4,4a,10b-hexahydrophenanthridin] are within 0.2 log units of each other in “-log IC50” value: 8.00 for the first, 7.97 for the second.

`CCOc1cc2c(cc1OCC)[C@@H]1CCCC[C@@H]1N=C2c1ccc(C#N)cc1` (racemic) [Verbindung 18, (+/-)-cis-8,9-Diethoxy-6-(4-cyanophenyl)-1,2,3,4,4a,10b-hexahydrophenanthridin] and `CCOc1cc2c(cc1OCC)[C@@H]1CCCC[C@@H]1N=C2c1ccncc1.Cl.Cl` (racemic) [Verbindung 24, (+/-)-cis-8,9-Diethoxy-6-(pyrid-4-yl)-1,2,3,4,4a,10b-hexahydrophenanthridin-dihydrochlorid] are within 0.2 log units of each other in “-log IC50” value: 8.24 for the first, 8.08 for the second.

Compared with `CCOc1cc2c(cc1OC)C(c1ccc(S(C)(=O)=O)cc1)=N[C@H]1CCCC[C@@H]21` (racemic) [Verbindung 22, (+/-)-cis-9-Ethoxy-8-methoxy-6-(4-methansulfonylphenyl)-1,2,3,4,4a,10b-hexahydrophenanthridin], `CCOc1cc2c(cc1OC)C(c1ccc(N)cc1)=N[C@H]1CCCC[C@@H]21` (racemic) [Verbindung 29, (+/-)-cis-9-Ethoxy-8-methoxy-6-(4-aminophenyl)-1,2,3,4,4a,10b-hexahydrophenanthridin] is lower in “-log IC50” value: 8.66 for the first, 7.69 for the second.

Going from `CCOc1cc2c(cc1OC)C(c1ccc(NS(=O)(=O)c3ccc(C(=O)OC)cc3)cc1)=N[C@@H]1CCCC[C@H]21` (racemic) [Verbindung 23, (+/-)-cis-9-Ethoxy-8-methoxy-6-[4-(4-methoxycarbonylphenyl)sulfonamidophenyl]-1,2,3,4,4a,10b-hexahvdrophenanthridin Hydrochlorid] to `CCOc1cc2c(cc1OC)C(c1ccc(NC(C)=O)cc1)=N[C@H]1CCCC[C@@H]21` (racemic) [Verbindung 32, (+/-)-cis-9-Ethoxy-8-methoxy-6-(4-acetamidophenyl)-1,2,3,4,4a,10b-hexahydrophenanthridin], the “-log IC50” value falls from 8.70 to 8.38.

Going from `CCOc1cc2c(cc1OCC)[C@@H]1CCCC[C@@H]1N=C2c1cccnc1.Cl` (racemic) [Verbindung 25, (+/-)-cis-8,9-Diethoxy-6-(pyrid-3-yl)-1,2,3,4,4a,10b-hexahydrophenanthridin-hydrochlorid] to `CCOc1cc2c(cc1OCC)[C@H]1CCCC[C@H]1N=C2c1ccc(Cl)nc1` (racemic) [Verbindung 26, (+/-)-cis-8,9-Diethoxy-6-(2-chiorpyrid-5-yl)-1,2,3,4,4a,10b-hexahydrophenanthridin], the “-log IC50” value rises from 7.96 to 8.41.

First: CCOc1cc2c(cc1OCC)[C@@H]1CCCC[C@@H]1N=C2c1ccc(O)nc1 (racemic) [Verbindung 27, (+/-)-cis-8,9-Diethoxy-6-(2-hydroxypyrid-5-yl)-1,2,3,4,4a,10b-hexahydrophenanthridin]
Second: COc1cc2c(cc1OC)[C@@H]1CCCC[C@@H]1N=C2c1ccc(NC(C)=O)cc1 (racemic) [Verbindung 31, (+/-)-cis-8,9-Dimethoxy-6-(4-acetamidophenyl)-1,2,3,4,4a,10b-hexahydrophenanthridin]
The “-log IC50” value of the first is lower: 6.66 for the first, 7.30 for the second.

`COc1cc2c(cc1OC)[C@@H]1CCCC[C@@H]1N=C2c1ccc(N(S(=O)(=O)c2ccc([N+](=O)[O-])cc2)S(=O)(=O)c2ccc([N+](=O)[O-])cc2)cc1` (racemic) [Verbindung 30, (+/-)-cis-8,9-Dimethoxy-6-[4-bis(p-nitrophenylsulfonyl)aminophenyl]-1,2,3,4,4a,10b-hexahydrophenanthridin] and `COc1cc2c(cc1OC)[C@H]1CCCC[C@H]1N=C2c1ccc(N(S(=O)(=O)c2ccc(C)cc2)S(=O)(=O)c2ccc(C)cc2)cc1` (racemic) [Verbindung 33, (+/-)-cis-8,9-Dimethoxy-6-[4-bis(p-toluolsulfonyl)aminophenyl]-1,2,3,4,4a,10b-hexahydrophenanthridin] are within 0.2 log units of each other in “-log IC50” value: 7.36 for the first, 7.27 for the second.
